Laboratory results taken from US20200331925A1, “HETEROCYCLIC COMPOUNDS FOR THE TREATMENT OF ABNORMAL CELLULAR PROLIFERATION” (G1 Therapeutics, Inc., priority 2018, published 2020).
Blank lines part the entries; values can stand above or below the compound they belong to.

Tests used:
Type in all cases: biochemical
CDK1/Cyclin B1 = CDK1/Cyclin B1 (Homo sapiens, UniProt P06493); experiment: CDK1/Cyclin B1 kinase assay (Nanosyn, Caliper microfluidic); conditions: 12-point dose-response, ATP at Km (40 μM), 3 hr
Procedure: (§1) Selected compounds disclosed herein were tested in kinase assays by Nanosyn (Santa Clara, Calif.) to determine their inhibitory effect on selected CDKs. The assays were performed using microfluidic kinase detection technology (Caliper Assay Platform). The compounds were tested in 12-point dose-response format in singlicate at Kmfor ATP. Phosphoacceptor substrate peptide concentration used was 1 μM for all assays and Staurosporine was used as the reference compound for all assays. Specifics of each assay are as described below: CDK1/Cyclin B1: Enzyme concentration: 0.08 nM; ATP concentration: 40 μM; Incubation time: 3 hr.

CDK6/Cyclin D3 = CDK6/Cyclin D3 (Homo sapiens, UniProt Q00534); experiment: CDK6/Cyclin D3 kinase assay (Nanosyn, Caliper microfluidic); conditions: 12-point dose-response, ATP at Km (300 μM), 3 hr
Procedure: as §1, with “CDK6/Cyclin D3:” for “CDK1/Cyclin B1:”, “2” for “0.08”, “300” for “40”

CDK9/Cyclin T = CDK9/Cyclin T (Homo sapiens, UniProt P50750); experiment: CDK9/Cyclin T kinase assay (Nanosyn, Caliper microfluidic); conditions: 12-point dose-response, ATP at Km (10 μM), 17 hr
Procedure: as §1, with “[…]:” for “CDK1/Cyclin B1:”, “5” for “0.08”, “10” for “40”, “17” for “3”

CDK4/Cyclin D1 = CDK4/Cyclin D1 (Homo sapiens, UniProt P11802); experiment: CDK4/Cyclin D1 kinase assay (Nanosyn, Caliper microfluidic); conditions: 12-point dose-response, ATP at Km (200 μM), 3 hr
Procedure: as §1, with “CDK4/Cyclin D1:” for “CDK1/Cyclin B1:”, “1” for “0.08”, “200” for “40”

CDK2/Cyclin A = CDK2/Cyclin A (Homo sapiens, UniProt P24941); experiment: CDK2/Cyclin A kinase assay (Nanosyn, Caliper microfluidic); conditions: 12-point dose-response, ATP at Km (50 μM), 3 hr
Procedure: as §1, with “CDK2/Cyclin A:” for “CDK1/Cyclin B1:”, “0.1” for “0.08”, “50” for “40”

CDK5/p35 = CDK5/p35 (Homo sapiens, UniProt Q00535); experiment: CDK5/p35 kinase assay (Nanosyn, Caliper microfluidic); conditions: 12-point dose-response, ATP at Km (20 μM), 3 hr
Procedure: as §1, with “CDK5/p35:” for “CDK1/Cyclin B1:”, “0.05” for “0.08”, “20” for “40”

CDK3/Cyclin E = CDK3/Cyclin E (Homo sapiens, UniProt Q00526); experiment: CDK3/Cyclin E kinase assay (Nanosyn, Caliper microfluidic); conditions: 12-point dose-response, ATP at Km (400 μM), 3 hr
Procedure: as §1, with “CDK3/Cyclin E:” for “CDK1/Cyclin B1:”, “1” for “0.08”, “400” for “40”

CDK2/Cyclin E = CDK2/Cyclin E (Homo sapiens, UniProt P24941); experiment: CDK2/Cyclin E kinase assay (Nanosyn, Caliper microfluidic); conditions: 12-point dose-response, ATP at Km (100 μM), 3 hr
Procedure: as §1, with “CDK2/Cyclin E:” for “CDK1/Cyclin B1:”, “0.15” for “0.08”, “100” for “40”

CDK5/p25 = CDK5/p25 (Homo sapiens, UniProt Q00535); experiment: CDK5/p25 kinase assay (Nanosyn, Caliper microfluidic); conditions: 12-point dose-response, ATP at Km (20 μM), 3 hr
Procedure: as §1, with “CDK5/p25:” for “CDK1/Cyclin B1:”, “0.1” for “0.08”, “20” for “40”

CDK7/Cyclin H = CDK7/Cyclin H (Homo sapiens, UniProt P50613); experiment: CDK7/Cyclin H kinase assay (Nanosyn, Caliper microfluidic); conditions: 12-point dose-response, ATP at Km (50 μM), 17 hr
Procedure: as §1, with “CDK7/Cyclin H:” for “CDK1/Cyclin B1:”, “10” for “0.08”, “50” for “40”, “17” for “3”

Sequence of CDK5/p25 (Q00535 whole entry): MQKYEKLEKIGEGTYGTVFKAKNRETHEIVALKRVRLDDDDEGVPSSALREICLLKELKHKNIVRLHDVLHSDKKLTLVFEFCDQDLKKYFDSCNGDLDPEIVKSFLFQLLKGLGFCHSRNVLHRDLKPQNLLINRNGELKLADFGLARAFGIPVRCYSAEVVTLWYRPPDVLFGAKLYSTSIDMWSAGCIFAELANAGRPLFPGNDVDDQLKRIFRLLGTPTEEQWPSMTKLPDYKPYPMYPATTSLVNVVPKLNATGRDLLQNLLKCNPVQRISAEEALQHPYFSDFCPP
Sequence of CDK5/p25 (Q15078 99-307 partner limits assumed): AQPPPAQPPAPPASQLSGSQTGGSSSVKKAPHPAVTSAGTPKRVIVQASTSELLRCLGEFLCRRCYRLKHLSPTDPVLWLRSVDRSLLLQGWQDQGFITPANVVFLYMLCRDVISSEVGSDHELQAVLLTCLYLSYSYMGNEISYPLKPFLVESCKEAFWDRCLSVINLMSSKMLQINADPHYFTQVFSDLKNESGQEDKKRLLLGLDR
Sequence of CDK5/p35 (Q00535 whole entry): as the sequence (Q00535 whole entry) above
Sequence of CDK5/p35 (Q15078 whole entry partner): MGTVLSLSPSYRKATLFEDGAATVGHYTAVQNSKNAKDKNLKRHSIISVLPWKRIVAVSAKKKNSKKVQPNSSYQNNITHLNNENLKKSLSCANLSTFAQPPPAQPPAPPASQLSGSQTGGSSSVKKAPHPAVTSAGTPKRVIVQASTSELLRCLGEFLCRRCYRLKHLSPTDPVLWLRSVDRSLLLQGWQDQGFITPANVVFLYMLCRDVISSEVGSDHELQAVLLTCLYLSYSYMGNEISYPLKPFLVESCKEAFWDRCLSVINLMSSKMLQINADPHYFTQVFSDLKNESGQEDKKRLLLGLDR
Sequence of CDK9/Cyclin T (P50750 whole entry): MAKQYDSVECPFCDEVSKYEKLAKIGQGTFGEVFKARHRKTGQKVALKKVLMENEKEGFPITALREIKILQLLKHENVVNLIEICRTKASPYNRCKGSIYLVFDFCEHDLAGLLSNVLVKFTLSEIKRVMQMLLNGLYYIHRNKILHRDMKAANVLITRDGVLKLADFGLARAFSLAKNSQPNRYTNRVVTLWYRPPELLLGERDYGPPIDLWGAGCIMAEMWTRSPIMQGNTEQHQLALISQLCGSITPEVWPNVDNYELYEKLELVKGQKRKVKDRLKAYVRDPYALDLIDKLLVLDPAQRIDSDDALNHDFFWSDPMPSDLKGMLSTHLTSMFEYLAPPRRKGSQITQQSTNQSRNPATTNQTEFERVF
Sequence of CDK9/Cyclin T (O60563 whole entry partner): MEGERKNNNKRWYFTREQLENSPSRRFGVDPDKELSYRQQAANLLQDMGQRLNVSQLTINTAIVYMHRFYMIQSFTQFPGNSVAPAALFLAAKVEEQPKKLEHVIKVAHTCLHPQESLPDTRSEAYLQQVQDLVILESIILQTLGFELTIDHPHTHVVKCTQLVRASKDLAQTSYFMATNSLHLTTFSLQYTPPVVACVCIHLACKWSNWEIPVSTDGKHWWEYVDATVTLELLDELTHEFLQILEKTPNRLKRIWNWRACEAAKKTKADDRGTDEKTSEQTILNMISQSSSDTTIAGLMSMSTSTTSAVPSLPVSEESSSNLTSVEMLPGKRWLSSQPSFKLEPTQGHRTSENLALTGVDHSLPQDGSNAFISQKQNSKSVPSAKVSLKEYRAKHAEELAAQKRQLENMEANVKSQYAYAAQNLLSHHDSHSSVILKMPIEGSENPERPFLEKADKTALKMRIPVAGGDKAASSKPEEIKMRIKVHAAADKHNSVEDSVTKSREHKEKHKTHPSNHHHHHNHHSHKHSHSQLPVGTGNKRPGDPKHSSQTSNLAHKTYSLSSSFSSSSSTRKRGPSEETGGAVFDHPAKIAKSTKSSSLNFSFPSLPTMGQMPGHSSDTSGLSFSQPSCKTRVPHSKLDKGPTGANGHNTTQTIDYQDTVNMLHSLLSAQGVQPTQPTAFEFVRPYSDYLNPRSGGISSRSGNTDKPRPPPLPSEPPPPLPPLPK
Sequence of CDK7/Cyclin H (P50613 whole entry): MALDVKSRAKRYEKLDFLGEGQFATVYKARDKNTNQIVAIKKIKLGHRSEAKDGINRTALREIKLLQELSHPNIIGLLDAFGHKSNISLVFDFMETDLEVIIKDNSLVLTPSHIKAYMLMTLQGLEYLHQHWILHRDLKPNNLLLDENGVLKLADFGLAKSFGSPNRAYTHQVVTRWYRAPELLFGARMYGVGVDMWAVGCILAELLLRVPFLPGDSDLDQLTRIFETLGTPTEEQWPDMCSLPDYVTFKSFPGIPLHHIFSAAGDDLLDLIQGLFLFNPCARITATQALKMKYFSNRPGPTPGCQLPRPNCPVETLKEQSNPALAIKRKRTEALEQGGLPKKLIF
Sequence of CDK7/Cyclin H (P51946 whole entry partner): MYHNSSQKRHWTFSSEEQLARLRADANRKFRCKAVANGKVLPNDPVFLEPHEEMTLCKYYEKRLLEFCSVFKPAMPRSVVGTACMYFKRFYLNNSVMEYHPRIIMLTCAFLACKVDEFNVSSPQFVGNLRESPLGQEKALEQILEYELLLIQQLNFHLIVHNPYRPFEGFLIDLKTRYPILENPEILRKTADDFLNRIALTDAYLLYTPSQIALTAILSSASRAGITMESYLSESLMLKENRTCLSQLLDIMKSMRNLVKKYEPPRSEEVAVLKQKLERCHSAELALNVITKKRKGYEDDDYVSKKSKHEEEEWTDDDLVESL
Sequence of CDK7/Cyclin H (P51948 whole entry partner): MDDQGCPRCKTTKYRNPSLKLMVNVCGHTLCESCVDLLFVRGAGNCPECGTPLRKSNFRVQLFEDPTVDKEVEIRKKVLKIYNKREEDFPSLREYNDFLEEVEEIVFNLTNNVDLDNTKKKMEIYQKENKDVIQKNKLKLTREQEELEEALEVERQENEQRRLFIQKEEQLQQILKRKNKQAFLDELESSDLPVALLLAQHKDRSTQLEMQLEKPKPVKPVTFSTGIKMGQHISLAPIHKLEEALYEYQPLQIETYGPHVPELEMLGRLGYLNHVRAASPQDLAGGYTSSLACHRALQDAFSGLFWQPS
Sequence of CDK6/Cyclin D3 (Q00534 whole entry): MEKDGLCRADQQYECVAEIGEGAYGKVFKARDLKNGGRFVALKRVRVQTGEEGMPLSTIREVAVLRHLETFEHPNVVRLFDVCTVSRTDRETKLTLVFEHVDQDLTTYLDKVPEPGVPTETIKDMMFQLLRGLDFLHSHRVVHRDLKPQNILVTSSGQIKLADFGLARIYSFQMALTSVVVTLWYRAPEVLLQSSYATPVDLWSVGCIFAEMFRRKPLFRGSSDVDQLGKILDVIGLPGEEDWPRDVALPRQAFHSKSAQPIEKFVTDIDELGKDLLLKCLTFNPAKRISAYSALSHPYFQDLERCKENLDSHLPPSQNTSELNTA
Sequence of CDK6/Cyclin D3 (P30281 whole entry partner): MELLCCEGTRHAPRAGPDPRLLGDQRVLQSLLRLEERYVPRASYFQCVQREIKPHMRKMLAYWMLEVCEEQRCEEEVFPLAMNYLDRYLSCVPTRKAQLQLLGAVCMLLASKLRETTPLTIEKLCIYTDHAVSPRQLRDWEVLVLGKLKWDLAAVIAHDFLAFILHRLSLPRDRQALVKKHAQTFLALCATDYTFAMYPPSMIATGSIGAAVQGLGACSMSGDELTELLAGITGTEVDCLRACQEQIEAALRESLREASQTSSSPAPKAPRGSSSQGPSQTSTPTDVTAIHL
Sequence of CDK4/Cyclin D1 (P11802 whole entry): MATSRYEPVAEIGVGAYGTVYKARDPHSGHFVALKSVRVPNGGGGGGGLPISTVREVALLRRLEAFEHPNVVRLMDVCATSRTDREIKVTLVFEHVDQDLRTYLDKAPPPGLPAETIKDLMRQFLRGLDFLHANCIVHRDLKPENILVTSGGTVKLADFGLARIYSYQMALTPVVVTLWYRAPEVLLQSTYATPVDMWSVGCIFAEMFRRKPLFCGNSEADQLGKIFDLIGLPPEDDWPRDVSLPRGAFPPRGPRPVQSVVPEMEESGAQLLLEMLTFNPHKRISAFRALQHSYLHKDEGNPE
Sequence of CDK4/Cyclin D1 (P24385 whole entry partner): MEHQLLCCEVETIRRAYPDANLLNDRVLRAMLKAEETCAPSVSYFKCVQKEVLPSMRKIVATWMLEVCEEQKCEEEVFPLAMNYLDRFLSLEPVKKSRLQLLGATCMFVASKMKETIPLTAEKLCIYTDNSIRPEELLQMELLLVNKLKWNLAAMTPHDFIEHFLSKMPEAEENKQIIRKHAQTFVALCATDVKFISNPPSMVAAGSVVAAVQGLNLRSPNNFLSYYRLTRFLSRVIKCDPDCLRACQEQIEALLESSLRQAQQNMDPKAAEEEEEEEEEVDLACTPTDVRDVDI

Structure (SMILES): O=C1NCC2(CCCCC2)n2c1cc1cnc(N[C@@H]3CCCN[C@@H]3c3ccccc3)nc12 [Compound 9, 2′-(((2R,3R)-2-phenylpiperidin-3-yl)amino)-7′,8′-dihydro-6′H-spiro[cyclohexane-1,9′-pyrazino[1′,2′:1,5]pyrrolo[2,3-d]pyrimidin]-6'-one]
IC50 (CDK1/Cyclin B1): 82000 nM | IC50 (CDK6/Cyclin D3): 12000 nM | IC50 (CDK9/Cyclin T; Table 5): 1600 nM | IC50 (CDK4/Cyclin D1; Table 4): 120 nM | IC50 (CDK2/Cyclin A): 71000 nM | IC50 (CDK5/p35): > 100000 nM | IC50 (CDK3/Cyclin E): > 100000 nM | IC50 (CDK2/Cyclin E): > 100000 nM | IC50 (CDK5/p25): > 100000 nM | IC50 (CDK7/Cyclin H): 20000 nM

Structure (SMILES): O=C1NCC2(CCCCC2)n2c1cc1cnc(N[C@@H]3C[C@@H](O)CNC3=O)nc12 [Compound 8, 2′-(((3R,5R)-5-hydroxy-2-oxopiperidin-3-yl)amino)-7′,8′-dihydro-6′H-spiro[cyclohexane-1,9′-pyrazino[1′,2′:1,5]pyrrolo[2,3-d]pyrimidin]-6′-one]
IC50 (CDK1/Cyclin B1): 27000 nM | IC50 (CDK6/Cyclin D3): 530 nM | IC50 (CDK9/Cyclin T; Table 5): 440 nM | IC50 (CDK4/Cyclin D1; Table 4): 100 nM | IC50 (CDK2/Cyclin A): 11000 nM | IC50 (CDK5/p35): 26000 nM | IC50 (CDK3/Cyclin E): 18000 nM | IC50 (CDK2/Cyclin E): 24000 nM | IC50 (CDK5/p25): 25000 nM | IC50 (CDK7/Cyclin H): 7200 nM

Structure (SMILES): S=C1NCC2(CCCCC2)n2c1cc1cnc(N[C@@H]3CCCNC3)nc12 [Compound 41, (R)-2′-(piperidin-3-ylamino)-7′,8′-dihydro-6′H-spiro[cyclohexane-1,9′-pyrazino[1′,2′:1,5]pyrrolo[2,3-d]pyrimidine]-6′-thione]
IC50 (CDK1/Cyclin B1): 330 nM | IC50 (CDK6/Cyclin D3): 23 nM | IC50 (CDK9/Cyclin T; Table 5): 4.3 nM | IC50 (CDK4/Cyclin D1; Table 4): 6.7 nM | IC50 (CDK2/Cyclin A): 150 nM | IC50 (CDK5/p35): 1100 nM | IC50 (CDK3/Cyclin E): 210 nM | IC50 (CDK2/Cyclin E): 310 nM | IC50 (CDK5/p25): 970 nM | IC50 (CDK7/Cyclin H): 85 nM

Structure (SMILES): N[C@H]1CC[C@@H](Nc2ncc3cc4n(c3n2)C2(CCCCC2)CN=C4)CC1 [Compound 55, (1s,4s)-N^1-(8′H-spiro[cyclohexane-1,9′-pyrazino[1′,2′:1,5]pyrrolo[2,3-d]pyrimidin]-2′-yl)cyclohexane-1,4-diamine]
IC50 (CDK1/Cyclin B1): 1400 nM | IC50 (CDK6/Cyclin D3): 680 nM | IC50 (CDK9/Cyclin T; Table 5): 22 nM | IC50 (CDK4/Cyclin D1; Table 4): 92 nM | IC50 (CDK2/Cyclin A): 810 nM | IC50 (CDK5/p35): 1700 nM | IC50 (CDK3/Cyclin E): 460 nM | IC50 (CDK2/Cyclin E): 330 nM | IC50 (CDK5/p25): 2000 nM | IC50 (CDK7/Cyclin H): 120 nM

Structure (SMILES): O=C1NCC2(CCCCC2)n2c1cc1cnc(N[C@H]3CC[C@H](N4CCC(C(F)(F)F)CC4)CC3)nc12 [Compound 56, 2′-(((1r,4r)-4-(4-(trifluoromethyl)piperidin-1-yl)cyclohexyl)amino)-7′,8′-dihydro-6′H-spiro[cyclohexane-1,9′-pyrazino[1′,2′:1,5]pyrrolo[2,3-d]pyrimidin]-6′-one]
IC50 (CDK9/Cyclin T; Table 6): 4 nM | IC50 (CDK4/Cyclin D1; Table 6): 27 nM

Continued, values first:

IC50 (CDK4/Cyclin D1; Table 6): 13 nM
Structure (SMILES): O=C1NCC2(CCCCC2)n2c1cc1cnc(N[C@H]3CC[C@H](N4CCN(CC5CCCCC5)CC4)CC3)nc12 [Compound 61, 2′-(((1r,4r)-4-(4-(cyclohexylmethyl)piperazin-1-yl)cyclohexyl)amino)-7′,8′-dihydro-6′H-spiro[cyclohexane-1,9′-pyrazino[1′,2′:1,5]pyrrolo[2,3-d]pyrimidin]-6′-one]

IC50 (CDK4/Cyclin D1; Table 6): 20 nM
Structure (SMILES): O=C1NCC2(CCCCC2)n2c1cc1cnc(N[C@H]3CC[C@H](N4CCN(C(=O)C5CC5)CC4)CC3)nc12 [Compound 62, 2′-(((1r,4r)-4-(4-(cyclopropanecarbonyl)piperazin-1-yl)cyclohexyl)amino)-7′,8′-dihydro-6′H-spiro[cyclohexane-1,9′-pyrazino[1′,2′:1,5]pyrrolo[2,3-d]pyrimidin]-6′-one]

IC50 (CDK4/Cyclin D1; Table 6): 33 nM
Structure (SMILES): O=C1NCC2(CCCCC2)n2c1cc1cnc(N[C@H]3CC[C@H](N4CCN(C5CC5)CC4)CC3)nc12 [Compound 58, 2′-(((1r,4r)-4-(4-cyclopropylpiperazin-1-yl)cyclohexyl)amino)-7′,8′-dihydro-6′H-spiro[cyclohexane-1,9′-pyrazino[1′,2′:1,5]pyrrolo[2,3-d]pyrimidin]-6′-one]

IC50 (CDK9/Cyclin T; Table 6): 3 nM | IC50 (CDK4/Cyclin D1; Table 6): 5 nM
Structure (SMILES): CC(C)(C)N1CCN([C@H]2CC[C@H](Nc3ncc4cc5n(c4n3)C3(CCCCC3)CNC5=O)CC2)CC1 [Compound 57, 2′-(((1r,4r)-4-(4-(tert-butyl)piperazin-1-yl)cyclohexyl)amino)-7′,8′-dihydro-6′H-spiro[cyclohexane-1,9′-pyrazino[1′,2′:1,5]pyrrolo[2,3-d]pyrimidin]-6′-one]

IC50 (CDK9/Cyclin T; Table 6): 2 nM | IC50 (CDK4/Cyclin D1; Table 6): 4 nM
Structure (SMILES): O=C1NCC2(CCCCC2)n2c1cc1cnc(N[C@H]3CC[C@H](N4CCN(C5CCCC5)CC4)CC3)nc12 [Compound 59, 2′-(((1r,4r)-4-(4-cyclopentylpiperazin-1-yl)cyclohexyl)amino)-7′,8′-dihydro-6′H-spiro[cyclohexane-1,9′-pyrazino[1′,2′:1,5]pyrrolo[2,3-d]pyrimidin]-6′-one]

IC50 (CDK9/Cyclin T; Table 6): 3 nM | IC50 (CDK4/Cyclin D1; Table 6): 13 nM
Structure (SMILES): O=C1NCC2(CCCCC2)n2c1cc1cnc(N[C@H]3CC[C@H](N4CCN(c5ccc(F)cc5)CC4)CC3)nc12 [Compound 60, 2′-(((1r,4r)-4-(4-(4-fluorophenyl)piperazin-1-yl)cyclohexyl)amino)-7′,8′-dihydro-6′H-spiro[cyclohexane-1,9′-pyrazino[1′,2′:1,5]pyrrolo[2,3-d]pyrimidin]-6′-one]
